# Earlier results, collected in patent publication US20040186131A1, “Method of preventing or treating atherosclerosis or restenosis” (priority 2002, published 2004).
# Tested on: CMV infection of rats
# Conditions: DHPG prophylaxis
smiles,measurement,value
Nc1nc(O)c2ncn(COC(CO)CO)c2n1 [Ganciclovir],prevention of atherosclerosis resulting from CMV infection,prevent atherosclerosis
